Literature values, collected in paper PMC5936891, “A focused library synthesis and cytotoxicity of quinones derived from the natural product bolinaquinone” (Royal Society Open Science, 2018).

Columns and labels:
[1] = system: HepG2 hepatoma cancer cell line; parameters: method as in ref 23 = [23]; 23 Jiao W-H , Xu T-T , Yu H-B , Mu F-R , Li J , Li Y-S , Yang F , Han B-N , Lin H-W 2014 Dysidaminones A-M, cytotoxic and NF-B inhibitory sesquiterpene aminoquinones from the South China Sea sponge, D; conditions: cited from earlier work
NCI-H929 myeloma = system: NCI-H929 myeloma; parameters: method as in ref 23 = [23]; 23 Jiao W-H , Xu T-T , Yu H-B , Mu F-R , Li J , Li Y-S , Yang F , Han B-N , Lin H-W 2014 Dysidaminones A-M, cytotoxic and NF-B inhibitory sesquiterpene aminoquinones from the South China Sea sponge, D; conditions: cited from earlier work

Row | Compound | GI50 [1] [nM] | GI50 (NCI-H929 myeloma) [nM]
1 | CC1=CCC[C@H]2[C@](C)(CC3=CC(=O)C=C(NCC(C)C)C3=O)[C@@H](C)CC[C@]12C [compound 6, dysidaminone E-5] | 940 | 
2 | CC1=CCC[C@H]2[C@](C)(CC3=CC(=O)C=C(NCCc4ccccc4)C3=O)[C@@H](C)CC[C@]12C [compound 7, 18-phenethylaminoavarone] |  | 1760
